Paper PMC10714400, “Antimicrobial Peptide–Peptoid Hybrids with and without Membrane Disruption” (ACS Infectious Diseases, 2023)
Converted amounts (≈) assume the structure as drawn. Where a SMILES comes first, the peptide text is derived from it. [ ]: non-standard residue; d: D form. Nleu = CC(C)CNCC(=O)O; Nlys = NCCCCNCC(=O)O

Legend:
HEK293 cells = assay: Cell viability assay by Alamar blue; details: read-out: Toxicity on HEK293 cells; CSV
Experimental: The data are represented as the mean value ± SD, n = 3. […] (c) Vesicle leakage assay for a selection of compounds. Lipid vesicles made of EYPG or EYPC were suspended in a buffer (10 mM TRIS, 107 mM NaCl, pH 7.4). After 45 s, the indicated compound was added to reach the desired concentration. After 240 s, 30 μL of 1.2% TritonX-100 was added for full fluorescein release. […] See Supporting Information for the full curves, all of the data, and procedures.
HEK293 cells were cultured and maintained in DMEM high glucose (Dulbecco’s modified Eagle medium, Sigma Aldrich) medium supplemented with 10% FBS (Sigma Aldrich) and 1% penicillin/streptomycin. A549 cells were cultured and maintained in RPMI-1640 medium (Sigma Aldrich), supplemented with 10% FBS (Sigma Aldrich) and 1% penicillin/streptomycin. The cells were handled and subcultured according to the manufacturer instructions. Cells were incubated in a humidified incubator at 37 °C in the presence of 5% CO2.
Assays on HEK293, A549 cells were performed as described earlier.[74] […]

[1] = test system: ZEM9A (clinical MDR P. aeruginosa isolate)
How it was run: (§1)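 MTT added (20–30 min, room temperature); MIC read by eye as lowest concentration inhibiting visible growth (yellow). Polymyxin B positive control from 16 μg/mL.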

E. cloacae = details: pH 7.4
How it was run: as §1

[2] = test system: ZEM-1A (clinical MDR P. aeruginosa isolate)
How it was run: as §1

A. baumannii ATCC19606 = test system: A. baumannii ATCC19606
How it was run: as §1

PA14 2P4 (pmrB) = test system: PA14 2P4 (pmrB)
How it was run: as §1

K. pneumoniae NCTC418 = test system: K. pneumoniae NCTC418
How it was run: as §1

PA14 4.13 (phoQ) = test system: PA14 4.13 (phoQ)
How it was run: as §1

K. pneumoniae OXA-48 = test system: K. pneumoniae OXA-48
How it was run: as §1

E. coli W3110 = test system: E. coli W3110
How it was run: as §1

PA14 4.18 (pmrB) = test system: PA14 4.18 (pmrB)
How it was run: as §1

S. aureus COL (MRSA) = test system: S. aureus COL (MRSA)
How it was run: as §1

P. aeruginosa PAO1 = test system: P. aeruginosa PAO1
How it was run: as §1

[3] = Circular dichroism, α-helical content; assay type: physicochemical; details: 0.1 mg/mL; for CD %α with 5 mM DPC: 10 mM phosphate buffer pH 7.4, 5 mM DPC; for CD %α with 20% TFE: 10 mM phosphate buffer pH 7.4, 20% TFE

For `CC(C)C[C@H](NC(=O)[C@H](CCCCN)NC(=O)CNCCCCN)C(=O)N[C@@H](CC(C)C)C(=O)N[C@@H](CCCCN)C(=O)N[C@@H](CC(C)C)C(=O)N[C@@H](CC(C)C)C(=O)N[C@@H](CCCCN)C(=O)N[C@@H](CC(C)C)C(=O)N[C@@H](CC(C)C)C(=O)N(CC(N)=O)CC(C)C` [EB1] (H-[Nlys]KLLKLLKLL[Nleu]-NH2; N-terminus assumed), which IC50 (HEK293 cells) is on record?
The IC50 was 110 ± 6 µM.

And the “MIC P. aeruginosa ZEM9A, full MH at pH 7.4” value ([1]; CSV, full MH at pH 7.4)?
Its value is 16 ug/mL.

What about the “MIC ZEM9A” value ([1]; MH pH 7.4, 16–20 h at 37 °C) of the same compound?
Its value is 16 µg/mL (≈ 12.1 µM).

And the “MIC E. cloacae, full MH at pH 7.4” value (E. cloacae; 4 h)?
Its value is 8 ug/mL.

And the “MIC E. cloacae” value (E. cloacae)?
The value was 8 µg/mL (≈ 6.05 µM).

What about the “MIC P. aeruginosa ZEM-1A, full MH at pH 7.4” value ([2]; CSV, full MH at pH 7.4) of the same compound?
Its value is 3 ug/mL.

And the “MIC ZEM-1A” value ([2]; MH pH 7.4, 16–20 h at 37 °C)?
Its value is 2 to 4 µg/mL.

What about the “MIC A. baumannii ATCC19606, full MH at pH 7.4” value (A. baumannii ATCC19606; ATCC19606, 4 h, pH 7.4) of the same compound?
Its value is 2 ug/mL.

And the “MIC A. baumannii ATCC19606 […] 7.4” value (A. baumannii ATCC19606; Table S2, […] MH, pH 7.4)?
The value was 2 µg/mL (≈ 1.51 µM).

And the “MIC A. baumannii ATCC19606 Full MH 7.4” value (A. baumannii ATCC19606; Table S2, full MH, pH 7.4)?
Its value is 2 µg/mL (≈ 1.51 µM).

And the “MIC A. baumannii ATCC19606 Full MH 8.5” value (A. baumannii ATCC19606; Table S2, full MH, pH 8.5)?
Its value is > 32 µg/mL.

And the “MIC P. aeruginosa PA14 2P4, […] MH at pH 8.5” value (PA14 2P4 (pmrB); CSV, […] MH at pH 8.5)?
The value was 2 ug/mL.

And the “MIC P. aeruginosa PA14 2P4, full MH at pH 7.4” value (PA14 2P4 (pmrB); CSV, full MH at pH 7.4)?
Its value is 32 ug/mL.

And the “MIC PA14 2P4 (pmrB)” value (PA14 2P4 (pmrB); MH pH 7.4, 16–20 h at 37 °C)?
Its value is 32 µg/mL (≈ 24.2 µM).

What about the “MIC P. aeruginosa PA14 2P4” value (PA14 2P4 (pmrB); Table S3, […] MH at pH 8.5) of the same compound?
The value was 2 µg/mL (≈ 1.51 µM).

What about the “MIC K. pneumoniae NCTC418, full MH at pH 7.4” value (K. pneumoniae NCTC418; NCTC418, 4 h, pH 7.4) of the same compound?
Its value is 8 ug/mL.

What about the “MIC K. pneumoniae NCTC418 […] 7.4” value (K. pneumoniae NCTC418; Table S2, […] MH, pH 7.4) of the same compound?
The value was 2 µg/mL (≈ 1.51 µM).

And the “MIC K. pneumoniae NCTC418 Full MH 7.4” value (K. pneumoniae NCTC418; Table S2, full MH, pH 7.4)?
Its value is 8 µg/mL (≈ 6.05 µM).

What about the “MIC K. pneumoniae NCTC418 Full MH 8.5” value (K. pneumoniae NCTC418; Table S2, full MH, pH 8.5) of the same compound?
Its value is > 32 µg/mL.

What about the “MIC P. aeruginosa PA14 4.13, […] MH at pH 8.5” value (PA14 4.13 (phoQ); CSV, […] MH at pH 8.5) of the same compound?
The value was 2 ug/mL.

And the “MIC P. aeruginosa PA14 4.13, full MH at pH 7.4” value (PA14 4.13 (phoQ); CSV, full MH at pH 7.4)?
Its value is 8 ug/mL.

What about the “MIC PA14 4.13 (phoQ)” value (PA14 4.13 (phoQ); MH pH 7.4, 16–20 h at 37 °C) of the same compound?
Its value is 8 µg/mL (≈ 6.05 µM).

And the “MIC P. aeruginosa PA14 4.13” value (PA14 4.13 (phoQ); Table S3, […] MH at pH 8.5)?
The value was 2 µg/mL (≈ 1.51 µM).

And the “MIC K. pneumoniae OXA-48, full MH at pH 7.4” value (K. pneumoniae OXA-48; CSV, full MH at pH 7.4)?
The value was 12 ug/mL.

What about the “MIC K. pneumoniae OXA-48” value (K. pneumoniae OXA-48; MH pH 7.4, 16–20 h at 37 °C) of the same compound?
The value was 8 to 16 µg/mL.

And the “MIC E. coli W3110, […] MH at pH 7.4” value (E. coli W3110; CSV, […] MH at pH 7.4)?
Its value is 2 ug/mL.

What about the “MIC E. coli W3110, full MH at pH 7.4” value (E. coli W3110; CSV, full MH at pH 7.4) of the same compound?
Its value is 2 ug/mL.

And the “MIC E. coli W3110 […] 7.4” value (E. coli W3110; Table S2, […] MH, pH 7.4)?
The value was 2 µg/mL (≈ 1.51 µM).

What about the “MIC E. coli W3110 […] 8.5” value (E. coli W3110; Table S2, […] MH, pH 8.5) of the same compound?
The value was 1 µg/mL (≈ 0.757 µM).

And the “MIC E. coli W3110 Full MH 7.4” value (E. coli W3110; Table S2, full MH, pH 7.4)?
Its value is 2 µg/mL (≈ 1.51 µM).

And the “MIC E. coli W3110 Full MH 8.5” value (E. coli W3110; Table S2, full MH, pH 8.5)?
Its value is 32 µg/mL (≈ 24.2 µM).

And the “MIC E. coli W3110 […]” value (E. coli W3110; diluted MH ([…] MH, pH 8.5) per Table 1 footnote b, 16–20 h at 37 °C)?
Its value is 2 µg/mL (≈ 1.51 µM).

What about the “MIC P. aeruginosa PA14 4.18, […] MH at pH 8.5” value (PA14 4.18 (pmrB); CSV, […] MH at pH 8.5) of the same compound?
The value was 2 ug/mL.

What about the “MIC P. aeruginosa PA14 4.18, full MH at pH 7.4” value (PA14 4.18 (pmrB); CSV, full MH at pH 7.4) of the same compound?
The value was 32 ug/mL.

And the “MIC PA14 4.18 (pmrB)” value (PA14 4.18 (pmrB); MH pH 7.4, 16–20 h at 37 °C)?
The value was 32 µg/mL (≈ 24.2 µM).

And the “MIC P. aeruginosa PA14 4.18” value (PA14 4.18 (pmrB); Table S3, […] MH at pH 8.5)?
Its value is 2 µg/mL (≈ 1.51 µM).

What about the “MIC S. aureus COL (MRSA) Full” value (S. aureus COL (MRSA); COL, pH 7.4) of the same compound?
The value was 8 µg/mL (≈ 6.05 µM).

What about the “MIC S. aureus COL (MRSA) […] 7.4” value (S. aureus COL (MRSA); Table S2, […] MH, pH 7.4) of the same compound?
The value was 2 µg/mL (≈ 1.51 µM).

And the “MIC S. aureus COL (MRSA) […] 8.5” value (S. aureus COL (MRSA); Table S2, […] MH, pH 8.5)?
The value was 2 µg/mL (≈ 1.51 µM).

What about the “MIC S. aureus COL (MRSA) Full MH 7.4” value (S. aureus COL (MRSA); Table S2, full MH, pH 7.4) of the same compound?
The value was 8/32.

And the “MIC S. aureus COL (MRSA) Full MH 8.5” value (S. aureus COL (MRSA); Table S2, full MH, pH 8.5)?
The value was 32 µg/mL (≈ 24.2 µM).

What about the “MIC P. aeruginosa PAO1, full MH at pH 7.4” value (P. aeruginosa PAO1; PAO1, 4 h, pH 7.4) of the same compound?
Its value is 4 ug/mL.

And the “MIC P. aeruginosa PAO1 […] 7.4” value (P. aeruginosa PAO1; Table S2, […] MH, pH 7.4)?
The value was 2 µg/mL (≈ 1.51 µM).

What about the “MIC P. aeruginosa PAO1 […] 8.5” value (P. aeruginosa PAO1; Table S2, […] MH, pH 8.5) of the same compound?
The value was 2 µg/mL (≈ 1.51 µM).

And the “MIC P. aeruginosa PAO1 Full MH 7.4” value (P. aeruginosa PAO1; Table S2, full MH, pH 7.4)?
The value was 4 µg/mL (≈ 3.03 µM).

What about the “MIC P. aeruginosa PAO1 Full MH 8.5” value (P. aeruginosa PAO1; Table S2, full MH, pH 8.5) of the same compound?
The value was 16 µg/mL (≈ 12.1 µM).

And the “CD %α with 5 mM DPC” value ([3]; DichroWeb, Contin-LL)?
Its value is 30%.

What about the “CD %α with 20% TFE” value ([3]; DichroWeb, Contin-LL) of the same compound?
Its value is 26%.

What about the “CD %α with 5 mM DPC” value ([3]; Table S2) of the same compound?
The value was 30%.

And the “CD %α with 20% TFE” value ([3]; Table S2)?
Its value is 26%.
